Results: US4229204A, “Trifluoromethylphenyl isoxazolyl benzoates” (Monsanto Company, priority 1978, dated 1980)

Legend:
Assay type in all cases: in vivo
[1] = system: mixture of Kentucky Bluegrass, Creeping Red Fescue and Chewings Fescue; assay: Growth regulation of lawn grasses (Table VIII)
Description: The compound of Example Number 3 was tested on various lawn grasses as follows. A mixture of Kentucky Bluegrass, Creeping Red Fescue and Chewings Fescue were planted in a good grade of top soil in plastic pots. Seven to ten days after germination, the plants were treated with the active ingredient to which a surfactant had been added by spraying the plants until they were wet with various concentrations.

Sugarbeet = assay: Pre-emergent herbicidal test; conditions: 4 WAT; also: ranges in brackets are in %
How it was run: (§1)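 A known dose of active ingredient was blended into the cover soil laid over seeded, compacted topsoil. Each species received a herbicidal rating derived from its percent injury.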

Hemp Sesbania = assay: Pre-emergent herbicidal test; conditions: 4 WAT; also: ranges in brackets are in %
How it was run: as §1

Downy Brome = assay: Pre-emergent herbicidal test; also: ranges in brackets are in %
How it was run: (§2)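 Seeds or vegetative propagules were pressed into compacted top soil in pans, then covered with soil thoroughly mixed with a known amount of active ingredient applied in solvent or as wettable powder. Herbicidal rating used a fixed scale based on percent injury per species.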

Johnsongrass = assay: Pre-emergent herbicidal test; conditions: 2 WAT, 11.2 kg/h; also: ranges in brackets are in %
How it was run: as §2

Morningglory = assay: Pre-emergent herbicidal test; also: ranges in brackets are in %
How it was run: as §2

Canada Thistle = assay: Pre-emergent herbicidal test; conditions: 2 WAT, 11.2 kg/h; also: ranges in brackets are in %
How it was run: as §2

Smartweed = assay: Pre-emergent herbicidal test; also: ranges in brackets are in %
How it was run: as §2

Velvetleaf = assay: Pre-emergent herbicidal test; also: ranges in brackets are in %
How it was run: as §2

Quackgrass = assay: Pre-emergent herbicidal test; conditions: 2 WAT, 11.2 kg/h; also: ranges in brackets are in %
How it was run: as §2

Barnyardgrass = assay: Pre-emergent herbicidal test; also: ranges in brackets are in %
How it was run: as §2

Yellow Nutsedge = assay: Pre-emergent herbicidal test; conditions: 2 WAT, 11.2 kg/h; also: ranges in brackets are in %
How it was run: as §2

Lambsquarters = assay: Pre-emergent herbicidal test; also: ranges in brackets are in %
How it was run: as §2

Cocklebur = assay: Pre-emergent herbicidal test; also: ranges in brackets are in %
How it was run: as §2

cheyenne wheat = assay: Growth regulation of wheat (Table XI)
Text: Table XI summarizes observations made when the compound of Example Number 3 was applied to cheyenne wheat.

With `COC(=O)c1ccccc1-c1cc(-c2cccc(C(F)(F)F)c2)no1` [Example 3, Methyl 2-[3-[3-(Trifluoromethyl)-Phenyl]-5-Isoxazolyl]Benzoate] the Height ([1]; 10 ppm, 3 weeks after treatment) was 102 % of Control, the Height ([1]; 10 ppm, 9 weeks after treatment) was 93 % of Control and the Height ([1]; 50 ppm, 3 weeks after treatment) was 94 % of Control. For the same molecule, the Height ([1]; 50 ppm, 9 weeks after treatment) was 86 % of Control, the Height ([1]; 250 ppm, 3 weeks after treatment) was 66 % of Control and the Height ([1]; 250 ppm, 9 weeks after treatment) was 57 % of Control. For the same molecule, the herbicidal rating (Sugarbeet; 1.12 kg/h) was 2 (50-74), the herbicidal rating (Sugarbeet; 5.60 kg/h) was 3 (75-100) and the herbicidal rating (Hemp Sesbania; 1.12 kg/h) was 3 (75-100). For the same molecule, the herbicidal rating (Hemp Sesbania; 5.60 kg/h) was 3 (75-100), the herbicidal rating (Downy Brome; 2 WAT, 11.2 kg/h) was 2 (50-74) and the herbicidal rating (Downy Brome; 4 WAT, 1.12 kg/h) was 1 (25-49). For the same molecule, the herbicidal rating (Downy Brome; 4 WAT, 5.60 kg/h) was 2 (50-74), the herbicidal rating (Johnsongrass) was 2 (50-74) and the herbicidal rating (Morningglory; 2 WAT, 11.2 kg/h) was 2 (50-74). For the same molecule, the herbicidal rating (Morningglory; 4 WAT, 1.12 kg/h) was 2 (50-74), the herbicidal rating (Morningglory; 4 WAT, 5.60 kg/h) was 3 (75-100) and the herbicidal rating (Canada Thistle) was 3 (75-100). The herbicidal rating (Smartweed; 2 WAT, 11.2 kg/h) was 3 (75-100), the herbicidal rating (Smartweed; 4 WAT, 1.12 kg/h) was 3 (75-100) and the herbicidal rating (Smartweed; 4 WAT, 5.60 kg/h) was 3 (75-100). For the same molecule, the herbicidal rating (Velvetleaf; 2 WAT, 11.2 kg/h) was 2 (50-74), the herbicidal rating (Velvetleaf; 4 WAT, 1.12 kg/h) was 1 (25-49) and the herbicidal rating (Velvetleaf; 4 WAT, 5.60 kg/h) was 2 (50-74). For the same molecule, the herbicidal rating (Quackgrass) was 3 (75-100), the herbicidal rating (Barnyardgrass; 2 WAT, 11.2 kg/h) was 3 (75-100) and the herbicidal rating (Barnyardgrass; 4 WAT, 1.12 kg/h) was 3 (75-100). The herbicidal rating (Barnyardgrass; 4 WAT, 5.60 kg/h) was 3 (75-100), the herbicidal rating (Yellow Nutsedge) was 2 (50-74) and the herbicidal rating (Lambsquarters; 2 WAT, 11.2 kg/h) was 3 (75-100). The herbicidal rating (Lambsquarters; 4 WAT, 1.12 kg/h) was 1 (25-49), the herbicidal rating (Lambsquarters; 4 WAT, 5.60 kg/h) was 2 (50-74) and the herbicidal rating (Cocklebur; 2 WAT, 11.2 kg/h) was 2 (50-74). The herbicidal rating (Cocklebur; 4 WAT, 1.12 kg/h) was 1 (25-49), the herbicidal rating (Cocklebur; 4 WAT, 5.60 kg/h) was 2 (50-74) and the “Plant Height” value (cheyenne wheat; time of treatment 15 days, 250 ppm, 3 weeks after treatment) was 80 % of Control. The “Plant Height” value (cheyenne wheat; time of treatment 15 days, 250 ppm, 6 weeks after treatment) was 93 % of Control, the “Plant Height” value (cheyenne wheat; time of treatment 42 days, 10 ppm, 3 weeks after treatment) was 113 % of Control and the “Plant Height” value (cheyenne wheat; time of treatment 42 days, 50 ppm, 3 weeks after treatment) was 112 % of Control. The “Plant Height” value (cheyenne wheat; time of treatment 42 days, 250 ppm, 3 weeks after treatment) was 109 % of Control.
